According to patent US20090155767A1, “Methods for a predictive diagnostic test for tamoxifen” (priority 2007, published 2009):
Like-named read-outs stand apart in the source and are kept apart here.

Tests used:
[1] = system: stage II invasive breast cancer (ER+ subset); test: Randomized clinical trial of two years of adjuvant tamoxifen vs no treatment (Swedish SBII:2a); recurrence-free survival by biomarker subgroup; type: in vivo, human; settings: for HR RFS: ER+
Description: From 1986 to 1991, 564 patients enrolled in a a randomized clinical trial for adjuvant tamoxifen treatment in early breast cancer (Swedish SBII:2a)(15). Criteria for enrollment included premenopausal status or age less than 50 years, with stage II invasive breast cancer. Patients were randomized to receive two years of tamoxifen (n=276) or no treatment (control, n=288), and were followed for disease-free and overall survival, with a median follow-up of 13.9 years. A detailed description of the trial and results has previously been published (15,16).
For analysis of tamoxifen response, only the ER+ subset of patients were included (16). By IHC, a cut-off value of at least 10% nuclear immunoreactivity was used to classify patients as ER-positive.
The statistical calculations were performed using SPSS Version 13.0 (SPSS, Chicago, Ill.) and Stata Version 9.2 (StataCorp, College Station, Tex.). Pearson's correlation coefficient (R) was used to assess the correlation between log AQUA-EGFR scores from redundant tumor cores and Spearman's Rho to assess the correlation between AQUA-EGFR score and other variables. Recurrence-free survival (RFS) was chosen as endpoint in the present study. RFS included breast cancer specific death, distant, regional and local recurrences and all analyses were performed with the intention to treat rule. The AQUA-EGFR score was dichotomized at the median in order to avoid bias problems associated with cut-off optimization. Kaplan-Meier plots were used to illustrate the survival in high and low EGFR, respectively, and the log rank test to test for equality of survival curves. Hazard ratios were estimated using Cox regression. Proportional hazards assumptions were checked using Schoenfeld's test. The null hypothesis of equal treatment effects in high and low EGFR were evaluated using a Cox model with a term for the interaction between EGFR class and treatment. Cox models with continuous AQUA-EGFR score were also fitted. The original score and a logarithmic transformation of the score were evaluated. […] All p-values corresponded to two-sided tests and values less than 0.05 were considered significant.

[2] = system: stage II invasive breast cancer (ER+ subset); settings: Cox univariate, tamoxifen vs control, cited from earlier work

## CC/C(=C(\c1ccccc1)c1ccc(OCCN(C)C)cc1)c1ccccc1 [Tamoxifen]
[1]; Cox multivariate, Tamoxifen Treatment (+/-), n = 324 (available data in 186 patients)
  HR RFS: 0.571
[1]; Cox univariate, tamoxifen vs control, EGFR-AQUA High, n = 73
  HR RFS: 1.14
[1]; Cox univariate, tamoxifen vs control, EGFR-AQUA Low, n = 113
  HR RFS: 0.43
[1]; Cox univariate, tamoxifen vs control, EGFR-IHC High, n = 27
  HR RFS: 0.73
[1]; Cox univariate, tamoxifen vs control, EGFR-IHC Low, n = 232
  HR RFS: 0.57
[1]; Cox univariate, tamoxifen vs control, HER2-AQUA High, N = 10
  HR RFS: 0.28
[1]; Cox univariate, tamoxifen vs control, HER2-AQUA Low, N = 231
  HR RFS: 0.64
[1]; ER+ patients with low EGFR expression (AQUA), n=113, p=0.01
  Effect of two years of adjuvant tamoxifen on RFS (log rank, Kaplan-Meier): significant effect
[1]; ER+ patients, EGFR high group (AQUA), n=73, p=0.69
  Effect of two years of adjuvant tamoxifen on RFS (log rank, Kaplan-Meier): no treatment effect
[1]; ER+ tamoxifen treated patients with high EGFR expression (AQUA)
  10-year RFS: 52%
[1]; ER+ tamoxifen treated patients, EGFR low group (AQUA)
  10-year RFS: 78%
[1]; ER+ tamoxifen-treated patients, high vs low EGFR (AQUA), Log-Rank p=0.0411
  Association of high EGFR expression with outcome in tamoxifen-treated patients: shorter time to recurrence and breast cancer death
[2]; HER2 IHC 0-2+ (Herceptest), N = 252
  HR RFS: 0.64
[2]; HER2 IHC 3+ (Herceptest), N = 23
  HR RFS: 0.67
